Results: ChEMBL document CHEMBL4373739, “6-Cinnamoyl-4-arylaminothienopyrimidines as highly potent cytotoxic agents: Design, synthesis and structure-activity relationship studies” (Eur J Med Chem, 2020)
Active and inactive are the calls of the source. No cut-off for these calls is given here.

Tests used:
HepG2 = experiment: Antiproliferative activity against human HepG2 cells incubated for 48 hrs by MTT assay; assay type: functional, cell-based; settings: HepG2, 48 h
A549 = experiment: Antiproliferative activity against human A549 cells incubated for 48 hrs by MTT assay; assay type: functional, cell-based; settings: A549, 48 h
MCF7 = experiment: Antiproliferative activity against human MCF7 cells incubated for 48 hrs by MTT assay; assay type: functional, cell-based; settings: MCF7, 48 h
PC-3 = experiment: Antiproliferative activity against human PC3 cells incubated for 48 hrs by MTT assay; assay type: functional, cell-based; settings: PC-3, 48 h
MDA-MB-231 = experiment: Antiproliferative activity against human MDA-MB-231 cells incubated for 48 hrs by MTT assay; assay type: functional, cell-based; settings: MDA-MB-231, 48 h
HeLa [1] = experiment: Antiproliferative activity against human HeLa cells incubated for 48 hrs by MTT assay; assay type: functional, cell-based
HeLa [2] = experiment: Induction of cell cycle arrest in human HeLa cells assessed as increase in cell population at sub-G1 phase at IC50 concentration after 48 hrs by RNase/propidium iodide staining based flow cytometry analysis; assay type: functional
SK-BR-3 = experiment: Antiproliferative activity against human SKBR3 cells incubated for 48 hrs by MTT assay; assay type: functional, cell-based; settings: SK-BR-3, 48 h
SW480 = experiment: Antiproliferative activity against human SW480 cells incubated for 48 hrs by MTT assay; assay type: functional, cell-based; settings: SW480, 48 h
SK-OV-3 = experiment: Antiproliferative activity against human SKOV3 cells incubated for 48 hrs by MTT assay; assay type: functional, cell-based; settings: SK-OV-3, 48 h
U-87 MG = experiment: Antiproliferative activity against human U87 cells incubated for 48 hrs by MTT assay; assay type: functional, cell-based, U-87MG ATCC
MRC5 = experiment: Cytotoxicity against human MRC5 cells incubated for 48 hrs by MTT assay; assay type: cell-based; settings: MRC5, 48 h
[3] = Selectivity index, ratio of IC50 for human MRC5 to IC50 for human A549; assay type: toxicity; settings: MRC5 cells and A549 cells, read-out: Ratio IC50
HeLa [4] = experiment: Induction of apoptosis in human HeLa cells assessed as live cells at IC50 concentration after 48 hrs by AnnexinV-APC/propidium iodide staining based FACScalibur flow cytometry analysis (reference value: 92 %); assay type: functional
HeLa [5] = experiment: Induction of apoptosis in human HeLa cells assessed as early apoptotic cells at IC50 concentration after 48 hrs by AnnexinV-APC/propidium iodide staining based FACScalibur flow cytometry analysis (reference value: 3.23 %); assay type: functional
HCT-116 = experiment: Antiproliferative activity against human HCT116 cells incubated for 48 hrs by MTT assay; assay type: functional, cell-based; settings: HCT-116, 48 h
HeLa [6] = experiment: Induction of apoptosis in human HeLa cells assessed as late apoptotic cells at IC50 concentration after 48 hrs by AnnexinV-APC/propidium iodide staining based FACScalibur flow cytometry analysis (reference value: 4.30 %); assay type: functional
HeLa [7] = experiment: Induction of apoptosis in human HeLa cells assessed as necrotic cells at IC50 concentration after 48 hrs by AnnexinV-APC/propidium iodide staining based FACScalibur flow cytometry analysis (reference value: 0.457 %); assay type: functional
[8] = molecular target: Epidermal growth factor receptor (Homo sapiens) (UniProt P00533); experiment: Inhibition of EGFR in human HeLa cells assessed as reduction in ERK 1/2 phosphorylation at IC50 concentration measured upto 48 hrs by Western blot analysis; assay type: cell-based
[9] = molecular target: Epidermal growth factor receptor (Homo sapiens) (UniProt P00533); experiment: Inhibition of EGFR phosphorylation in human HeLa cells at IC50 concentration measured upto 48 hrs by Western blot analysis; assay type: cell-based
[10] = molecular target: Epidermal growth factor receptor (Homo sapiens) (UniProt P00533); experiment: Inhibition of EGFR in human HeLa cells assessed as effect on AKT phosphorylation at IC50 concentration measured upto 48 hrs by Western blot analysis; assay type: cell-based
HeLa [11] = experiment: Induction of apoptosis in human HeLa cells assessed as necrotic cells after 48 hrs by AnnexinV-APC/propidium iodide staining based FACScalibur flow cytometry analysis (reference value: 0.457 %); assay type: functional
HeLa [12] = experiment: Induction of apoptosis in human HeLa cells assessed as early apoptotic cells after 48 hrs by AnnexinV-APC/propidium iodide staining based FACScalibur flow cytometry analysis (reference value: 3.23 %); assay type: functional
HeLa [13] = experiment: Induction of apoptosis in human HeLa cells assessed as live cells after 48 hrs by AnnexinV-APC/propidium iodide staining based FACScalibur flow cytometry analysis (reference value: 92 %); assay type: functional
HeLa [14] = experiment: Induction of apoptosis in human HeLa cells assessed as late apoptotic cells after 48 hrs by AnnexinV-APC/propidium iodide staining based FACScalibur flow cytometry analysis (reference value: 4.30 %); assay type: functional

Sequence of Epidermal growth factor receptor (Homo sapiens) (P00533 whole entry): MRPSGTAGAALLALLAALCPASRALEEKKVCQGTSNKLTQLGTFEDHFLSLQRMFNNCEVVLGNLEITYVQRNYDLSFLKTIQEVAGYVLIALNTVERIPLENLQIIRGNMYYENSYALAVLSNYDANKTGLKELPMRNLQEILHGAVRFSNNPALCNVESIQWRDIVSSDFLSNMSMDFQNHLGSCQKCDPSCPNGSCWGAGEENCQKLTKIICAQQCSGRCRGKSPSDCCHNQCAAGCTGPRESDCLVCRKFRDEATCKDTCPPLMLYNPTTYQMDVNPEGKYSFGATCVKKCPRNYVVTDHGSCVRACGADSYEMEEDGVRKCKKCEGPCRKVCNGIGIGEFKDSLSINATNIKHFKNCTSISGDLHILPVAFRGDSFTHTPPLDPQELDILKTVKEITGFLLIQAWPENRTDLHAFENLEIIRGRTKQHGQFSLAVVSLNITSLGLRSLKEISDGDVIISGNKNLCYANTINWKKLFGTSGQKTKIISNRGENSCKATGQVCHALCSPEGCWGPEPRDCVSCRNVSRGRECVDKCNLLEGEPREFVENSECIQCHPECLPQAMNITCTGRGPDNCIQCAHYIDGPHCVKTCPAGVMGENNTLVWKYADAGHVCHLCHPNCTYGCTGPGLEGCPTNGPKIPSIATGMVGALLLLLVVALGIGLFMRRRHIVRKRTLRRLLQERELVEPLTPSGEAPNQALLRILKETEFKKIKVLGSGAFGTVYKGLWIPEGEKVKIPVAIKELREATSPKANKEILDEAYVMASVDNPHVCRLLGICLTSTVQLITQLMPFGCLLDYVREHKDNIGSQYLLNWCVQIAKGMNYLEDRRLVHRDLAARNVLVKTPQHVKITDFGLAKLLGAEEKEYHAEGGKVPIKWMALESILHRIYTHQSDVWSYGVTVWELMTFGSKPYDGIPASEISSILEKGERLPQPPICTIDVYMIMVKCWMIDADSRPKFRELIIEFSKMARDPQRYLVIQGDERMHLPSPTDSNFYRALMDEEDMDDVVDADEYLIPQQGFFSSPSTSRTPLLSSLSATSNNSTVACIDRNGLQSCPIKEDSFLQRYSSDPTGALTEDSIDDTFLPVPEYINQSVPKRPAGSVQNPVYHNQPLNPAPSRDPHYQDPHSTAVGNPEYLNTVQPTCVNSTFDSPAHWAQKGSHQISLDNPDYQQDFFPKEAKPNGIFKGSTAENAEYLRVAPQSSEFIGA

Structure (SMILES)	IC50 (HepG2) [µM]	IC50 (A549) [µM]	IC50 (MCF7) [µM]	IC50 (PC-3) [µM]	IC50 (MDA-MB-231) [µM]	IC50 (HeLa [1]) [µM]	further results
O=C(/C=C/c1ccccc1)Nc1cc2c(Nc3ccc(F)c(Cl)c3)ncnc2s1	22.8	11.2	14.3	0.7	7.6	2.14	
COc1ccc(/C=C/C(=O)Nc2cc3c(Nc4ccc(Cl)c(Cl)c4)ncnc3s2)cc1	30.6	3.32	20.1	0.79	16.6	0.033	Activity (HeLa [2]): Active; IC50 (SK-BR-3): 11.9 µM; IC50 (SW480): 5.75 µM; IC50 (SK-OV-3): 10.7 µM; IC50 (U-87 MG): 4.4 µM; IC50 (MRC5): 18.7 µM; selectivity ratio [3]: 5.6; Activity (HeLa [4]): 66.8%; Activity (HeLa [5]): 15.7%; IC50 (HCT-116): 7.41 µM; Activity (HeLa [6]): 15.5%; Activity (HeLa [7]): 2%
O=C(/C=C/c1ccccc1)Nc1cc2c(Nc3cccc(Cl)c3F)ncnc2s1	44.6	26.2	93.9	0.4	3.93	34.9	
N#Cc1cccc(Nc2ncnc3cc(NC(=O)/C=C/c4ccccc4)sc23)c1	15.9	17.2	> 100	0.54	1.04	7.22	
O=C(/C=C/c1ccccc1)Nc1cc2ncnc(Nc3cc(Cl)cc(Cl)c3)c2s1	10.7	12.5	> 100	0.22	1	3.21	
COc1ccc(/C=C/C(=O)Nc2cc3c(Nc4cc(Cl)cc(Cl)c4)ncnc3s2)cc1	41.8	21.9	75.6	0.45	1.97	43.3	
O=C(/C=C/c1ccccc1)Nc1cc2c(Nc3cc(Cl)cc(Cl)c3)ncnc2s1	21.8	0.04	5.8	0.39	11.5	0.004	inhibition [8]: Active; Activity (HeLa [2]): Active; inhibition [9]: Active; IC50 (SK-BR-3): 6.46 µM; IC50 (SW480): 4.93 µM; IC50 (SK-OV-3): 10.9 µM; IC50 (U-87 MG): 4.49 µM; IC50 (MRC5): 28.8 µM; selectivity ratio [3]: 720; Activity (HeLa [4]): 45.8%; Activity (HeLa [5]): 42.8%; IC50 (HCT-116): 3.83 µM; inhibition [10]: inactive; Activity (HeLa [6]): 11%; Activity (HeLa [7]): 0.448%
O=C(/C=C/c1ccccc1)Nc1cc2ncnc(Nc3ccc(F)c(Cl)c3)c2s1	10.6	6.67	30.9	0.2	2.1	2.81	
O=C(/C=C/c1ccccc1)Nc1cc2ncnc(Nc3ccc(Cl)c(Cl)c3)c2s1	13.4	19.4	> 100	0.26	2.41	10.7	
COc1ccc(/C=C/C(=O)Nc2cc3ncnc(Nc4ccc(F)c(Cl)c4)c3s2)cc1	13.9	22.7	29.1	0.1	2.6	20.6	
O=C(/C=C/c1ccccc1)Nc1cc2c(Nc3ccc(Cl)c(Cl)c3)ncnc2s1	30.1	7.6	15.3	0.48	4.4	0.43	
C#Cc1cccc(Nc2ncnc3cc(OCCOC)c(OCCOC)cc23)c1 [ERLOTINIB]	28.8	3.8	11.7	7	8.3	7.48	IC50 (SK-BR-3): 49.3 µM; IC50 (SW480): 23 µM; IC50 (SK-OV-3): 61.8 µM; IC50 (U-87 MG): 31.9 µM; Activity (HeLa [11]): 6.06%; Activity (HeLa [12]): 26.2%; Activity (HeLa [13]): 52.7%; IC50 (HCT-116): 23.3 µM; Activity (HeLa [14]): 15%
O=C(/C=C/c1ccc(O)cc1)Nc1cc2c(Nc3ccc(Cl)c(Cl)c3)ncnc2s1	42.9	34.3	60.6	0.3	1.98	24.8	
C#Cc1cccc(Nc2ncnc3cc(NC(=O)/C=C/c4ccccc4)sc23)c1	15.4	26.2	75.6	0.7	2.34	20.5	
C#Cc1cccc(Nc2ncnc3sc(NC(=O)/C=C/c4ccccc4)cc23)c1	58.1	10.1	38.4	0.4	5.05	4.64	
